Data on two compounds can be found in patent US5053329A, “Process for preparation of novel angiotensin II antagonists” (Merck & Co., Inc., priority 1991, dated 1991).

This test concerns the target T1, angiotensin II receptor (rabbit aortae membrane preparation) (Oryctolagus cuniculus, UniProt P34976).
T1 sequence (P34976 1-359): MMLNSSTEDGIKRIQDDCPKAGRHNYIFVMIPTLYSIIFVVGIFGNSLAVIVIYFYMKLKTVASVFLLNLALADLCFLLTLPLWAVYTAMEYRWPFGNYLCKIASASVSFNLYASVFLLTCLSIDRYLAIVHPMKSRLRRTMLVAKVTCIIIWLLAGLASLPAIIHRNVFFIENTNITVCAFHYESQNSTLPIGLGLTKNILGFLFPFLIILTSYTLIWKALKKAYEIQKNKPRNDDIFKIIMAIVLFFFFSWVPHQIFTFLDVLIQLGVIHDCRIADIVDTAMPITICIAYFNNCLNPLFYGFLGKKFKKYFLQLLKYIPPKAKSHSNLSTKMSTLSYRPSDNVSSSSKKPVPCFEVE
The experiment in a line: Receptor binding assay using rabbit aortae membrane preparation (displacement of 125I-Sar1 Ile8-angiotensin II). The conditions noted are these: result in words. Here is the method:
This assay is also referred to herein as the "IC50 " assay.
RECEPTOR BINDING ASSAY USING RABBIT AORTAE MEMBRANE PREPARATION
Three frozen rabbit aortae (obtained from Pel-Freeze Biologicals) were suspended in 5 mM Tris-0.25M Sucrose, pH 7.4 buffer (50 ml) homogenized, and then centrifuged. The mixture was filtered through a cheesecloth and the supernatant was centrifuged for 30 minutes at 20,000 rpm at 4° C. The pellet thus obtained was resuspended in 30 ml of 50 mM Tris-5 mM MgCl2 buffer containing 0.2% Bovine Serum Albumin and 0.2 mg/ml Bacitration and the suspension was used for 100 assay tubes. Samples tested for screening were done in duplicate. To the membrane preparation (0.25 ml) there was added ^125 I-Sar^1 Ile^8 -angiotensin II [obtained from New England Nuclear] (10 ul; 20,000 cpm) with or without the test sample and the mixture was incubated at 37° C. for 90 minutes. The mixture was then diluted with ice-cold 50 mM Tris-0.9% NaCl, pH 7.4 (4 ml) and filtered through a glass fiber filter (GF/B Whatman 2.4" diameter). The filter was soaked in scintillation cocktail (10 ml) and counted for radioactivity using Packard 2660 Tricarb liquid scintillation counter. […]
(In general: Loss of bound radioactivity is the signal in a displacement assay; it reports binding, not function.)

Take `CCCc1nc2c(C)c(O)cnc2n1Cc1ccc(-c2ccccc2-c2nnn[nH]2)cc1` [6-HO-oxidation product]: the “A II antagonist activity by the IC50 assay” value was “exhibit A II antagonist activity”. Under `CCCc1nc2c(CO)ccnc2n1Cc1ccc(-c2ccccc2-c2nnn[nH]2)cc1` [7-HOCH2 - oxidation product] stands “exhibit A II antagonist activity”.
